In US20240103006A1 (Roche Diagnostics Operations, Inc., priority 2021, published 2024):

Experiment: not given
Settings: solvent as listed per probe; cited from earlier work

| SMILES | Spectra: With Cys | Spectra: Probe [nm] |
| --- | --- | --- |
| C=CC(=O)Oc1ccc2c(c1)Oc1cc(OC(=O)C=C)ccc1C21OC(=O)c2ccccc21 | With Cys 490 nm |  |
| C=CC(=O)Oc1ccc2c(c1)OC1CCCC(=O)C1=C2 (stereo not shown) | 398 nm |  |
| C=CC(=O)Oc1ccc2c(c1)Oc1c(ccc3oc(=O)c(C(=O)OCC)cc13)C21OC(=O)c2ccccc21 (stereo not shown) | 450 nm | 332 |
| C=CC(=O)Oc1ccc(/C=C/c2sc3ccccc3[n+]2CC)c2cccnc12 | 566 nm | 387 |
| C=CC(=O)Oc1ccc(/C=C/C2=CC(=C(C#N)C#N)c3ccccc3O2)cc1 | 557 nm | 381 |
| C=CC(=O)OC1=C(/C=C/C2=[N+](CCC)c3ccccc3C2(C)C)CCC/C1=C\C=C1\N(CCC)c2ccccc2C1(C)C | 515 nm | 775 |
| C=CC(=O)Oc1ccc(/C=C/C2=[N+](C)c3ccccc3C2(C)C)cc1 [drawing 16] | 512 nm | 384 |
| C=CC(=O)Oc1ccc(/C=C/C(=O)/C=C(O)/C=C/c2ccc(OC(=O)C=C)c(OC)c2)cc1OC | 427 nm | 400 |
| C=CC(=O)Oc1cccc2c1C(=O)N(Cc1cccc[n+]1CC)C2=O | 400 nm | 360 |
| C=CC(=O)Oc1ccc2c(c1)oc(=O)c1c(=O)oc3ccccc3c12 | 445 nm | 350 |
| C=CC(=O)Oc1ccc2c(c1)OC1=C(/C=C/C3CC(=C(C#N)C#N)c4ccccc4O3)CCCC1=C2 (stereo not shown) | 600 nm | 550 |

Experiment: UV-vis spectral properties / extinction coefficients in aqueous buffer
Type: physicochemical
Settings: merocyanine dyes, 25 mM HEPES pH 7.4, 1-24 μM
Method: Absorption spectra were recorded on a Cary 50 UV-vis spectrometer from Varian. All measurements were performed in 1 cm UV-vis disposable cuvettes (BRAND semi-micro) and air-equilibrated solutions at 25±0.1° C. A total assay volume of 1.0 mL was used for each measurement. UV-vis scan spectra were recorded using following parameters: average time 0.05 s; data interval 1 nm; scan rate 1200 nm/min; with base line correction.
Stock solutions of assayed compounds (2-5 mM) were prepared in H2O-DMSO (1:1), stored at −20° C., and diluted to 1.0 mM with buffer before use. The L-Cys stock solution (20.0 mM) was freshly prepared in buffer before the measurements. […]
For a measurement, 1000 μL of buffer and 1-50 μL of probe (1.0 mM) were mixed, and then transferred to a cuvette. Absorbance spectra (250-800 nm) were measured against a blank of the buffer. At least six concentrations of each compound were used to calculate extinction coefficients from the slope of probe concentration vs absorbance plots, using MS Excel software (Microsoft).

| ε at λmax [mM⁻¹ cm⁻¹] | λmax [nm] | SMILES |
| --- | --- | --- |
| 109.7 | 582 | CC1(C)C(/C=C/c2ccc(O)c3ccccc23)=[N+](CCCCS(=O)(=O)[O-])c2ccccc21 [MF56] |
| 67.4 | 546 | Cc1cc(/C=C/C2=[N+](C)c3ccccc3C2(C)C)cc(C)c1O [MF67] |
| 48.1 | 514 | CC1(C)C(/C=C/c2ccc(O)cc2S(=O)(=O)[O-])=[N+](CCCCS(=O)(=O)O)c2ccccc21 [MF58] |
| 70.0 | 575 | COc1cc(/C=C/C2=[N+](CCCCS(=O)(=O)[O-])c3ccccc3C2(C)C)cc(OC)c1O [MF68] |
| 27 to 37 | 520 | C[N+]1=C(/C=C/c2ccc(O)cc2)C(C)(C)c2ccccc21.[I-] [LZ06, reference compound] |
| 106.3 | 572 | CC1(C)C(/C=C/c2ccc(O)c3ncccc23)=[N+](CCCCS(=O)(=O)[O-])c2ccccc21 [MF57] |
| 73.9 | 550 | Cc1cc(/C=C/C2=[N+](CCCCS(=O)(=O)[O-])c3ccccc3C2(C)C)cc(C)c1O [MF51] |
| 70.1 | 529 | COc1cc(O)ccc1/C=C/C1=[N+](CCCCS(=O)(=O)[O-])c2ccccc2C1(C)C [MF52] |
| 36.6 | 527 | CC1(C)C(/C=C/c2ccc(O)cc2)=[N+](CCCCS(=O)(=O)[O-])c2ccccc21 [LZ04, reference compound] |
| 122.6 | 556 | Cc1cc(/C=C/C2=[N+](CCCS(=O)(=O)O)c3ccc(S(=O)(=O)[O-])cc3C2(C)C)cc(C)c1O [MF66] |
| 44.9 | 528 | CC1(C)C(/C=C/c2ccc(O)c(S(=O)(=O)[O-])c2)=[N+](CCCCS(=O)(=O)O)c2ccccc21 [MF54] |
| 65.3 | 548 | COc1cc(/C=C/C2=[N+](CCCCS(=O)(=O)[O-])c3ccccc3C2(C)C)ccc1O [MF53] |

Same assay, conditions: merocyanine dyes, same buffer at pH 8.0

| ε at λmax [mM⁻¹ cm⁻¹] | λmax [nm] | SMILES |
| --- | --- | --- |
| 84.9 | 546 | Cc1cc(/C=C/C2=[N+](C)c3ccccc3C2(C)C)cc(C)c1O [MF67] |
| 37 to 53 | 520 | C[N+]1=C(/C=C/c2ccc(O)cc2)C(C)(C)c2ccccc21.[I-] [LZ06, reference compound] |
| 45.6 | 527 | CC1(C)C(/C=C/c2ccc(O)cc2)=[N+](CCCCS(=O)(=O)[O-])c2ccccc21 [LZ04, reference compound] |
| 138.6 | 556 | Cc1cc(/C=C/C2=[N+](CCCS(=O)(=O)O)c3ccc(S(=O)(=O)[O-])cc3C2(C)C)cc(C)c1O [MF66] |
